Experimental data from patent US20230286968A1, “ARYLOXAZOLO SPIRAL RING DERIVATIVES FOR THE TREATMENT AND PROPHYLAXIS OF HEPATITIS B VIRUS INFECTION” (Hoffmann-La Roche Inc., priority 2020, published 2023).
Like-named read-outs stand apart in the source and are kept apart here.

Assays:
HBeAg = test: PHH natural infection assay, HBeAg (alphalisa); format: cell-based, HBV
Experimental: (§1) Detailed procedures regarding primary human hepatocyte (PHH) HBV natural infection assay are described as below. One tube of frozen PHH (10 million cells) is thawed in 37° C. water bath and then transferred to 20 mL of PHH thawing medium (Sigma, InVitroGRO HT Medium, Cat. S03319) with gently mixing. The cells were then centrifuged at […] for 5 min, the supernatant was discarded and the tube was refilled with 25 mL of PHH plating medium (Sigma, InVitroGRO CP Medium, Cat. S03317). The tube was shaken very gently to re-suspend all cells, and then 50 μL of cells were transferred to each well 384-well collagen I coated plate with appropriate liquid handling equipment, e.g. Integra VIAFLO384 or Agilent Bravo. The cells were then cultured for 24 hours in a cell incubator. For HBV infection, after PHH attachment on the culture plate, the plating medium was removed and replenished with PHH culture medium containing HBV virus. The PHH culture medium was prepared with Dulbecco's Modified Eagle Medium (DMEM)/F12 (1:1 in volume ratio) containing 10% fetal bovine serum (Gibco, Cat. 10099141), 5 ng/mL human epidermal growth factor (Gibco, Cat.PHG0311L), 20 ng/mL dexamethasone (Sigma, Cat.D4902-100 mg), 250 ng/mL human recombinant insulin (Gibco, Cat.41400045) and 100 U/mL penicillin. HBV virus at 200 genome equivalent (GE) per cell with 4% PEG8000 (Sigma, Cat.P1458) containing culture medium were added to the PHH culture medium for infection. The cells were then cultured for 24 hours in cell incubator. Then the cell culture supernatant was removed. The HBV-infected PHH were cultured with sandwich culture method with PHH culture medium containing […] and 0.25 mg/mL matrix gel for 72 hours. The supernatant was then refreshed with PHH culture medium containing different concentrations of testing compounds for two times with 72-hour interval. At the end of treatment, the supernatant was collected for viral markers measurements, including HBsAg, HBeAg, HBV DNA and cytotoxicity. HBsAg and HBeAg were detected using alphalisa method using their specific antibodies. For HBV DNA detection, HBV DNA Quantitative Fluorescence Diagnostic Kit (Sansure Biotech Inc.) was used following the manufacture's protocol. Cytotoxicity was determined using Cell Counting Kit-8 (CCK8, Dojindo Molecular Technologies, Inc.).
(§2) The compounds of the present invention were tested for their capacity to inhibit HBsAg and HBeAg as described herein.

HBsAg = test: PHH natural infection assay, HBsAg (alphalisa); format: cell-based, HBV
Experimental: as §1, §2

[1] = Cytotoxicity in PHH natural infection assay (Cell Counting Kit-8); format: cell-based; conditions: HBV-infected primary human hepatocytes, CCK8
Experimental: as §1

[2] = Hepatitis B virus, Hepatocyte, read-out: HBeAg IC50, HBV-infected primary human hepatocytes, supernatant, alphalisa
[3] = Hepatitis B virus, Hepatocyte, read-out: HBsAg IC50, HBV-infected primary human hepatocytes, supernatant, alphalisa
[4] = read-out: HBeAg IC50, HBV-infected primary human hepatocytes, supernatant, alphalisa
[5] = read-out: HBsAg IC50, HBV-infected primary human hepatocytes, supernatant, alphalisa

Row | SMILES | IC50 (HBeAg; [2]) [µM] | IC50 (HBsAg; [3]) [µM] | CC50 at 144 h [1] [µM] | IC50 (HBeAg; [4]) [µM] | IC50 (HBsAg; [5]) [µM]
1 | Cc1cc(C(=O)NC2CC3(C2)CC(c2nc4cc(Cl)ccc4o2)C3)ccn1 (stereo not drawn) [Example 4, N-[6-(5-chloro-1,3-benzoxazol-2-yl)spiro[3.3]heptan-2-yl]-2-methyl-pyridine-4-carboxamide] | 4.59 | 5.51 | > 10 | – | –
2 | CC(=O)N1CCC(C(=O)NC2CC3(C2)CC(c2nc4cc(Cl)ccc4o2)C3)C1 (stereo not drawn) [Example 73, 1-acetyl-N-[6-(5-chloro-1,3-benzoxazol-2-yl)spiro[3.3]heptan-2-yl]pyrrolidine-3-carboxamide] | 6.39 | 9.05 | > 10 | – | –
3 | O=C(NC1CC2(C1)CC(c1nc3cc(Cl)ccc3o1)C2)c1ccnc(NC2CC2)c1 (stereo not drawn) [Example 10, N-[6-(5-chloro-1,3-benzoxazol-2-yl)spiro[3.3]heptan-2-yl]-2-(cyclopropylamino)pyridine-4-carboxamide] | 3.92 | 3.77 | > 10 | – | –
4 | O=C(NC1CC2(C1)CC(c1nc3cc(Cl)ccc3o1)C2)c1cccnc1 (stereo not drawn) [Example 2, N-[6-(5-chloro-1,3-benzoxazol-2-yl)spiro[3.3]heptan-2-yl]pyridine-3-carboxamide] | 5.25 | 6.2 | 68.3 | – | –
5 | O=C(CC1CS(=O)(=O)C1)NC1CC2(C1)CC(c1nc3cc(Cl)ccc3o1)C2 (stereo not drawn) [Example 50, N-[6-(5-chloro-1,3-benzoxazol-2-yl)spiro[3.3]heptan-2-yl]-2-(1,1-dioxothietan-3-yl)acetamide] | 1.36 | 1.96 | > 100 | – | –
6 | O=C(CC1CCCS1(=O)=O)NC1CC2(C1)CC(c1nc3cc(Cl)ccc3o1)C2 (stereo not drawn) [Example 47, N-[6-(5-chloro-1,3-benzoxazol-2-yl)spiro[3.3]heptan-2-yl]-2-(1,1-dioxothiolan-2-yl)acetamide] | 2.1 | 3.46 | > 100 | – | –
7 | [H][C@]1(NC(=O)c2ccnc(S(=O)(=O)C3CC3)c2)C[C@]2(C1)C[C@]([H])(c1nc3cc(Cl)ccc3o1)C2 (single isomer, unassigned) [Example 84a, (Ra)—N-[6-(5-chloro-1,3-benzoxazol-2-yl)spiro[3.3]heptan-2-yl]-2-cyclopropylsulfonyl-pyridine-4-carboxamide] | – | – | 84.3 | 0.13 | 0.07
8 | CC(C)S(=O)(=O)NC1CC2(C1)CC(c1nc3cc(Cl)ccc3o1)C2 (stereo not drawn) [Example 58, N-[6-(5-chloro-1,3-benzoxazol-2-yl)spiro[3.3]heptan-2-yl]propane-2-sulfonamide] | 5.97 | 6.19 | > 100 | – | –
9 | Cc1ccc(S(=O)(=O)N2CCC(CC(=O)NC3CC4(C3)CC(c3nc5cc(Cl)ccc5o3)C4)C2)cc1 (stereo not drawn) [Example 76, N-[6-(5-chloro-1,3-benzoxazol-2-yl)spiro[3.3]heptan-2-yl]-2-[1-(p-tolylsulfonyl)pyrrolidin-3-yl]acetamide] | 4 | 2.89 | > 10 | – | –
10 | O=C(NC1CC2(C1)CC(c1nc3cc(Cl)ccc3o1)C2)c1ccnc(S(=O)(=O)C2CC2)c1 (stereo not drawn) [Example 83, N-[6-(5-chloro-1,3-benzoxazol-2-yl)spiro[3.3]heptan-2-yl]-2-cyclopropylsulfonyl-pyridine-4-carboxamide] | 0.05 | 0.14 | 90.5 | – | –
11 | Cc1cnc(-c2cc(C(=O)NC3CC4(C3)CC(c3nc5cc(Cl)ccc5o3)C4)ccn2)s1 (stereo not drawn) [Example 15, N-[6-(5-chloro-1,3-benzoxazol-2-yl)spiro[3.3]heptan-2-yl]-2-(5-methylthiazol-2-yl)pyridine-4-carboxamide] | 1.47 | 2.25 | > 10 | – | –
12 | O=C(NC1CC2(C1)CC(c1nc3cc(Cl)ccc3o1)C2)C1CCS(=O)(=O)C1 (stereo not drawn) [Example 40, N-[6-(5-chloro-1,3-benzoxazol-2-yl)spiro[3.3]heptan-2-yl]-1,1-dioxo-thiolane-3-carboxamide] | 5.09 | 5.72 | > 100 | – | –
13 | [H][C@@]1(C(=O)N[C@]2([H])C[C@@]3(C2)C[C@@]([H])(c2nc4cc(Cl)ccc4o2)C3)CC(=O)N(C)C1 (single isomer, unassigned) [Example 94c] | 0.61 | 1.24 | > 100 | – | –
14 | O=C(NC1CC2(C1)CC(c1nc3cc(Cl)ccc3o1)C2)c1ccnc(S(=O)(=O)C2COC2)c1 (stereo not drawn) [Example 25, N-[6-(5-chloro-1,3-benzoxazol-2-yl)spiro[3.3]heptan-2-yl]-2-(oxetan-3-ylsulfonyl)pyridine-4-carboxamide] | 2.53 | 4.18 | > 10 | – | –
15 | CNC(=O)c1cc(C(=O)NC2CC3(C2)CC(c2nc4cc(Cl)ccc4o2)C3)ccn1 (stereo not drawn) [Example 102, N4-[6-(5-chloro-1,3-benzoxazol-2-yl)spiro[3.3]heptan-2-yl]-N2-methyl-pyridine-2,4-dicarboxamide] | 2.28 | 2.69 | > 10 | – | –
16 | CS(=O)(=O)c1cc(C(=O)NC2CC3(C2)CC(c2nc4cc(Cl)cnc4o2)C3)ccn1 (stereo not drawn) [Example 88, N-[6-(6-chlorooxazolo[5,4-b]pyridin-2-yl)spiro[3.3]heptan-2-yl]-2-methylsulfonyl-pyridine-4-carboxamide] | 1.65 | 2.42 | > 10 | – | –
17 | O=C(NCC1CC(O)C1)NC1CC2(C1)CC(c1nc3cc(Cl)ccc3o1)C2 (stereo not drawn) [Example 64, 1-[6-(5-chloro-1,3-benzoxazol-2-yl)spiro[3.3]heptan-2-yl]-3-[(3-hydroxycyclobutyl)methyl]urea] | 4.47 | 5.62 | 84.8 | – | –
18 | [H][C@]1(NC(=O)c2ccnc(S(C)(=O)=O)c2)C[C@]2(C1)C[C@]([H])(c1nc3cc(Cl)ccc3o1)C2 (single isomer, unassigned) [Example 87-a, (Ra)—N-[6-(5-chloro-1,3-benzoxazol-2-yl)spiro[3.3]heptan-2-yl]-2-methylsulfonyl-pyridine-4-carboxamide] | – | – | > 10 | 0.22 | 0.2
19 | Cc1ccc(S(=O)(=O)N2CCC(CC(=O)NC3CC4(C3)CC(c3nc5cc(Cl)ccc5o3)C4)CC2)cc1 (stereo not drawn) [Example 80, N-[6-(5-chloro-1,3-benzoxazol-2-yl)spiro[3.3]heptan-2-yl]-2-[1-(p-tolylsulfonyl)-4-piperidyl]acetamide] | 3.93 | 3.64 | > 10 | – | –
20 | CCNC(=O)NC1CC2(C1)CC(c1nc3cc(Cl)ccc3o1)C2 (stereo not drawn) [Example 59, 1-[6-(5-chloro-1,3-benzoxazol-2-yl)spiro[3.3]heptan-2-yl]-3-ethyl-urea] | 3.94 | 8.6 | > 100 | – | –
21 | CS(=O)(=O)N1CCC(CC(=O)NC2CC3(C2)CC(c2nc4cc(Cl)ccc4o2)C3)CC1 (stereo not drawn) [Example 79, N-[6-(5-chloro-1,3-benzoxazol-2-yl)spiro[3.3]heptan-2-yl]-2-(1-methylsulfonyl-4-piperidyl)acetamide] | 3.6 | 6.72 | > 10 | – | –
22 | Cc1csc(-c2cc(C(=O)NC3CC4(C3)CC(c3nc5cc(Cl)ccc5o3)C4)ccn2)n1 (stereo not drawn) [Example 14, N-[6-(5-chloro-1,3-benzoxazol-2-yl)spiro[3.3]heptan-2-yl]-2-(4-methylthiazol-2-yl)pyridine-4-carboxamide] | 4.08 | 6.36 | > 10 | – | –
23 | CN1C(=O)CCC1CC(=O)NC1CC2(C1)CC(c1nc3cc(Cl)ccc3o1)C2 (stereo not drawn) [Example 36, N-[6-(5-chloro-1,3-benzoxazol-2-yl)spiro[3.3]heptan-2-yl]-2-(1-methyl-5-oxo-pyrrolidin-2-yl)acetamide] | 3.72 | 4.05 | > 10 | – | –
24 | Cc1ccc(S(=O)(=O)N2CC(CC(=O)NC3CC4(C3)CC(c3nc5cc(Cl)ccc5o3)C4)C2)cc1 (stereo not drawn) [Example 78, N-[6-(5-chloro-1,3-benzoxazol-2-yl)spiro[3.3]heptan-2-yl]-2-[1-(p-tolylsulfonyl)azetidin-3-yl]acetamide] | 4.37 | 4.77 | > 10 | – | –
